What was measured:
nitrilase bll6402 [1] = biological target: T1, nitrilase bll6402 (Bradyrhizobium diazoefficiens, UniProt Q89GE3); assay: Substrate specificity: specific/relative activity by ammonia release; type: biochemical, Bradyrhizobium japonicum USDA110; conditions: for Relative Activity: 25 mM substrate, pH 7.2, 30° C., phenylacetonitrile defined as 100
Description: The standard assays were carried out by mixing the substrate nitrile and purified nitrilase enzyme in potassium phosphate buffer (100 mM, pH 7.2). The reaction mixture was incubated at 30° C. Samples (100 μL) of the reaction mixture were withdrawn at several time intervals and quenched with 10 μl of 1 M HCl. The amount of ammonia produced in the reaction was measured using Bertholet assay as follows: A 100 μL aliquot of each of the following assay reagents was added subsequently: 0.02 M NaOCl, 0.33 M sodium phenoxide and 0.01% sodium nitroprusside solution. The mixture was then heated at 95° C. for 2 min, cooled rapidly in ice-water bath, and 200 μl of the mixture was then placed in a 96-well plate to measure the absorbance at 640 nm using SpectraMax M2 microplate reader (Molecular Devices). The amount of ammonia released during the hydrolysis was calculated by comparison with the standard curve obtained with standard ammonium chloride solution, and the activity was defined as the number of μmol of ammonia produced in 1 minute by 1 mg of enzyme (μmol·min^−1·mg^−1). To determine the kinetic parameters of the purified protein for mandelonitrile, activity assays were performed with different substrate concentrations, and Vmax and Km were calculated by best fitting the curve to experimental data according to Michaelis equation.
The specific activities of nitrilase bll6402 toward 24 different nitrites with structural diversity were measured by the quantification of the amount of ammonia released during the hydrolysis. A reaction mixture containing 20 or 40 μg of purified bll6402 enzyme, 25 mM substrate in potassium phosphate buffer (1 ml, 100 mM, pH 7.2) was incubated at 30° C. The conversion was determined by measuring the amount of ammonia produced in the reaction using Bertholet assay as described above.

nitrilase bll6402 [2] = biological target: T1, nitrilase bll6402; assay: Selective hydrolysis of dinitriles to cyanocarboxylic acids; type: biochemical, Bradyrhizobium japonicum USDA110; conditions: selective hydrolysis of dinitrile
Text: Because of the synthetic importance of selective hydrolysis of dinitriles to […], nitrilase bll6402 was studied toward the hydrolysis of a series of dinitriles (e.g., scheme 6). [drawing 6]
The selectivity was not dependent on the chain length. This was different from the results obtained with nitrilases from Arabidopsis thaliana, acidovorax facilis 72W and cyanobacterium Synechocystis sp. strain PCC 6803, in which di-acids were obtained as the chain length increased.

nitrilase bll6402 [3] = biological target: T1, nitrilase bll6402; assay: Regioselective hydrolysis of 1-cyanocycloalkaneacetonitriles; type: biochemical, Bradyrhizobium japonicum USDA110; conditions: 200 mg dinitrile, 10 mg nitrilase, pH 7.2, 30° C.
Description: The general procedure was followed: 1-Cyanocycloalkaneacetonitiles (200 mg) was treated with the nitrilase (10 mg) in potassium phosphate buffer (50 ml, 100 mM, pH=7.2). The reaction mixture was incubated at 30° C. and monitored by ^13C NMR. When dinitrile was consumed, the mixture was acidified with 1 N HCl solution to pH˜5, saturated with NaCl and extracted with ethyl acetate. The organic extract was dried over anhydrous sodium sulfate. Removal of solvent provided the desired product, which was further purified by preparative TLC using ethyl acetate-hexane (35/65, v/v) as eluting solvent.

nitrilase bll6402 [4] = biological target: T1, nitrilase bll6402; assay: Enantioselective hydrolysis of β-hydroxy nitriles; type: biochemical, Bradyrhizobium japonicum USDA110
Description: β-Hydroxy nitrites were prepared by the cyanization of α-bromoketones with sodium cyanide followed by NaBH4 reduction. The obtained β-hydroxy nitrites were treated with purified nitrilase bll6402 in potassium phosphate buffer (100 mM, pH 7.0), and the reaction mixture was incubated overnight at 30° C. The mixture was then saturated with NaCl and extracted with ethyl acetate. The extract was dried over sodium sulfate, and evaporation of the solvent under reduced pressure afforded the crude products. The β-hydroxy carboxylic acids were separated from unreacted β-hydroxy nitrites by preparative thin-layer chromatography.
The ee values of both the product acids and the recovered nitrites were measured by chiral HPLC analysis, and their absolute configurations were determined by comparing the sign of optical rotation with the literature data. The enantiomeric ratios (E) were calculated using the equations proposed by Sih et al. (J. Am. Chem. Soc. 1982, 104, 7294-7299). The results are presented in Table 6 together with the data for the hydrolysis of mandelonitrile under the same conditions.

nitrilase bll6402 [5] = biological target: T1, nitrilase bll6402; assay: Hydrolysis of aromatic α-hydroxy nitriles, conversion by HPLC; type: biochemical, Bradyrhizobium japonicum USDA110; conditions: 25 mM nitrile, 0.16 mg nitrilase in 1 mL, pH 7.2, overnight at 30° C.
Description: To further characterize the efficiency of nitrilase b116402 to catalyze the hydrolysis of mandelonitrile derivatives to the corresponding carboxylic acids, the hydrolysis of several aromatic α-hydroxy nitrites were carried out and the product carboxylic acids were characterized by HPLC analysis. An example procedure was as follows: aromatic α-hydroxynitriles (25 mM) were treated with 0.16 mg nitrilase bll6402 in 1 mL of potassium phosphate buffer (100 mM, pH 7.2). The reaction mixture was incubated overnight at 30° C. A sample was withdrawn and analyzed by HPLC (column: Agilent C8, eluent: MeOH:H2O=20:80, flow rate: 1 mL/min, detector: 254 nm) and the products were identified by comparison with the authentic standards.

[6] = test system: arylacetonitrilases from Alcaligenes faecalis ATCC8750 and JM3; conditions: known arylacetonitrilases; cited from earlier work
nitrilase bll6402 [7] = biological target: T1, nitrilase bll6402; type: biochemical, Bradyrhizobium japonicum USDA110; conditions: pH 7.2
[8] = Effects of temperature, pH and organic solvents on nitrilase activity; type: biochemical; conditions: 30% (v/v) of hexane, tert-butyl methyl ether or toluene; 30° C., pH 7.1, 4 hours
Description: For the determination of temperature effect, a mixture of nitrilase (0.5 mg) with benzyl cyanide (50 mM) in 1.0 ml of potassium phosphate buffer (100 mM, pH 7.1) was incubated at 25° C., 30° C., 37° C. and 45° C., respectively. Aliquots (100 μl) were taken after 1, 2, 4, and 16 hrs intervals, and acidified with 10 μl of 1M HC1. The formed phenylacetic acid was extracted into 200 μl of tert-butyl methyl ether, dried over anhydrous sodium sulfate, and quantified by GC analysis after converting to methyl ester with diazomethane.
The pH effect was studied using the following buffer: sodium citrate buffer (pH 4.91 and 5.44), potassium phosphate buffer (pH 6.07, 6.52, 7.10, 7.58, 7.98 and 8.49) and sodium bicarbonate buffer (pH 8.98). A mixture of nitrilase (0.5 mg) with benzyl cyanide (50 mM) in 1.0 ml of the respective buffer (100 mM) was incubated at 30° C. […] The formed phenylacetic acid was extracted into 200 μl of tert-butyl methyl ether, dried over anhydrous sodium sulfate, and quantified by GC analysis after converting to methyl ester with diazomethane.
The organic solvent effects were evaluated with dimethyl sulfoxide (DMSO), tert-butyl methyl ether, hexane, toluene and butyl acetate. […] The formed phenylacetic acid was extracted into 1 ml of tert-butyl methyl ether, dried over anhydrous sodium sulfate, and quantified by GC analysis after converting to methyl ester with diazomethane.

[9] = pH 7.0, overnight at 30° C., isolated yield

T1 sequence (Q89GE3 whole entry, looked up): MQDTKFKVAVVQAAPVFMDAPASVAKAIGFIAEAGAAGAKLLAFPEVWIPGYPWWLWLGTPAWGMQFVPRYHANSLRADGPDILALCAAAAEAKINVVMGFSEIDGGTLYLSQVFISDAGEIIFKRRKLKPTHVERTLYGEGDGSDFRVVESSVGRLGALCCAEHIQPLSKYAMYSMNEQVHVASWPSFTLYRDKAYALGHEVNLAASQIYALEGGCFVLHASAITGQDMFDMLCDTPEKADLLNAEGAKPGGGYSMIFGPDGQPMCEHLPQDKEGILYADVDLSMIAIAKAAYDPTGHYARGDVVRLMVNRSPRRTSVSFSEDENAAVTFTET

Compound | Relative Activity (nitrilase bll6402 [1]) | also measured
N#CCCCCC#N [1,4-Dicyanobutane] | 5 | Yield (%) of cyanocarboxylic acid (nitrilase bll6402 [2]): 97%
N#CCCCCCC#N [1,5-Dicyanopentane] |  | Yield (%) of cyanocarboxylic acid (nitrilase bll6402 [2]): 90%
N#CCCCCCCC#N [1,6-Dicyanohexane] |  | Yield (%) of cyanocarboxylic acid (nitrilase bll6402 [2]): 88%
N#CCC1(C#N)CCCCC1 [1-cyancyclohexaneacetonitrile] |  | isolated yield of corresponding cyanocarboxylic acid (nitrilase bll6402 [3]): 88%
N#CCC1(C#N)CCCCCC1 [1-cyanocycloheptaneacetonitrile] |  | isolated yield of corresponding cyanocarboxylic acid (nitrilase bll6402 [3]): 54%
N#CCC1(C#N)CCCC1 [1-cyanocyclopentaneacetonitrile] |  | isolated yield of corresponding cyanocarboxylic acid (nitrilase bll6402 [3]): 92%
CC(C#N)CCC#N (stereo not drawn) [2-Methylglutaronitrile] | 3 | 
N#CC(N)c1ccccc1 (stereo not drawn) [2-Phenylglycinonitrile] | 3 | 
N#CCCN [3-Aminopropionitrile] | 1 | 
N#CCCO [3-Hydroxypropionitrile] | 1 | 
N#CCc1c[nH]c2ccccc12 [3-Indolylacetonitrile] | 2 | 
CC(CC#N)c1ccccc1 (stereo not drawn) [3-phenylbutyronitrile] |  | hydrolysis by nitrilase bll6402 (result in words) (nitrilase bll6402 [4]; same conditions as β-hydroxy nitriles): not hydrolyzed
CC(=O)c1ccc(C#N)cc1 [4-Acetylbenzonitrile] | 2 | 
N#CCCCCl [4-Chlorobutyronitrile] | 6 | 
N#CCCCc1ccccc1 [4-Phenylbutyronitrile] | 4 | 
C=CCC#N [Allyl cyanide] | 2 | 
N#Cc1ccccc1 [Benzonitrile] | 1 | 
CC=CC#N [Crotononitrile] | 3 | 
N#C/C=C/C#N [Fumaronitrile] |  | Yield (%) of cyanocarboxylic acid (nitrilase bll6402 [2]): 84%

Compound | Relative Activity (nitrilase bll6402 [1]) | also measured
N#CCCCC#N [Glutaronitrile] |  | Yield (%) of cyanocarboxylic acid (nitrilase bll6402 [2]): 93%
CCCCCCC#N [Heptanenitrile] | 22 | 
CCCCCC#N [Hexanenitrile] | 16 | 
N#CCCc1ccccc1 [Hydrocinnamonitrile] | 13 | 
N#CC(O)c1ccccc1 (stereo not drawn) [Mandelonitrile] | 460 | activity relative to that of phenylacetonitrile (nitrilase bll6402 [1]; hydrolysis by nitrilase bll6402): 4.6 times; Conversion(%) (nitrilase bll6402 [5]): 98%; product acid (S)-2 ee (%) (nitrilase bll6402 [4]; pH 7.0, overnight at 30° C., chiral HPLC): 0%; product acid (S)-2 yield (%) (nitrilase bll6402 [4]; [9]): 98%; recovered nitrile (R)-1 yield (%) (nitrilase bll6402 [4]; [9]): 0%; activity as % of that for phenylacetonitrile [6]: 12-15%
CSCC#N [Methylthioacetonitrile] | 1 | Yield (%) of product carboxylic acid (nitrilase bll6402 [7]): 96%
N#CCc1ccccc1 [Phenylacetonitrile] | 100 | 
N#CCCCCCCCCC#N [Sebeconitrile] |  | Yield (%) of cyanocarboxylic acid (nitrilase bll6402 [2]): 88%
N#CCCC#N [Succinonitrile] |  | Yield (%) of cyanocarboxylic acid (nitrilase bll6402 [2]): 97%
CCCCC#N [Valeronitrile] | 6 | 
CCCC#N [n-Butyronitrile] | 3 | Yield (%) of product carboxylic acid (nitrilase bll6402 [7]): 61%
CC(C)(C#N)C#N [α,α-Dimethylmalononitrile] |  | Yield (%) of cyanocarboxylic acid (nitrilase bll6402 [2]): 93%
N#CC(O)c1cccc(O)c1 (stereo not drawn) [α-Hydroxy-α-(m-hydroxyphenyl)acetonitrile] |  | Conversion(%) (nitrilase bll6402 [5]): 94%
N#CC(O)c1ccc(O)cc1 (stereo not drawn) [α-Hydroxy-α-(p-hydroxyphenyl)acetonitrile] |  | Conversion(%) (nitrilase bll6402 [5]): 88%
CN(C)C(C#N)c1ccccc1 (stereo not drawn) [α-N,N-Dimethylaminophenylacetonitrile] | 1 | 
CCC(C#N)c1ccccc1 (stereo not drawn) [α-Phenylbutyronitrile] | 8 | 
C[Si](C)(C)OC(C#N)c1ccccc1 (stereo not drawn) [α-Trimethylsilyloxyphenylacetonitrile] | 165 | Conversion(%) (nitrilase bll6402 [5]): 99%
CC(C#N)c1ccccc1 (stereo not drawn) [α-phenylpropionitrile] | 10 | 
nitrilase bll6402: nitrilase (mandelonitrile hydrolase) from Bradyrhizobium japonicum USDA110, amino acid SEQ ID NO: 2, expressed in E. coli |  | retained activity in biphasic systems [8]: more than 70%

From US20070178575A1, “Identification Of A Nitrilase From B. Japonicum By Rational Genome Mining And Methods Of Use” (priority 2005, published 2007)
